Test results published in patent US11950596B2, “Methods of protecting seeds from oxidants and microorganisms” (The United States of America, as represented by the …, priority 2020, dated 2024).
Read-outs that look alike come from different tables or passages of the source. Marks after values point to notes of the source that are not given here.

Tested on: A. flavus 3357
Experiment: Heat-sensitizing antimicrobial bioassay (MFC) in A. flavus 3357
Type: cell-based, Aspergillus flavus
Conditions: for MFC: read-out: minimum fungicidal concentration (MFC; >99.999% fungal death)
Protocol: Antimicrobial bioassay: The heat-sensitizing effect of twenty-eight compounds (phenolic derivatives, alkyl gallates, other food additives) (0.025, 0.050, 0.075, 0.100, 0.200, 0.300, 0.400, 0.500, 0.600 or 0.700 mM) and six drugs/fungicides (1, 2, 4, 8, 16, 32, 64 ppm) (Table 2) were examined using A. flavus 3357. Two hundred μL of fungal spores (1.5×10^5 to 2.1×10^5 CFU) dispersed in PBS was transferred into individual microfuge tube (1.5 mL vol.), where (1) “control” tube contained DMSO only, while (2) “treatment” tube contained test chemical/drug at respective concentration. The tubes were then treated with mild heat (57.5° C.) or maintained at room temperature (RT; 22.0° C.) for 90 seconds. After treatments, entire volume (200 μL) from each microfuge tube was spread onto fresh recovery PDA, and plates were incubated at respective temperatures. Fungal growth/survival was monitored after 48 hrs of incubation.
As described in A. flavus 3357 test (see above), microfuge tubes were treated with mild heat (57.5° C.) or maintained at RT (22.0° C.) (90 seconds). After heat treatments, entire volume (200 μL) from each microfuge tube was spread onto fresh recovery LB agar (for bacteria) or PDA (for fungi), and plates were incubated at the optimum temperature for respective microorganisms (i.e., 35° C. for Aspergillus, 37° C. for E. coli, 28° C. for Penicillium/A. tumefaciens, respectively). The growth/survival of test microorganisms were monitored after 48 to 72 hrs of incubation.
Determination of optimum temperature and time duration for screening heat sensitizers in A. flavus 3357: For the determination of the optimum temperature and time points for screening heat sensitizers, fungal (A. flavus 3357) survivability was tested by exposing fungal spores (1.5×10^5 to 2.1×10^5 CFU) to different temperatures (50, 55, 57.5, 60, 65° C.) and time points (0.5, 1.0, 1.5, 2.0, 2.5, 3.0, 3.5, 4.0, 4.5, 5.0 min).

[1] = Aspergillus flavus, 3357, 0.025 h, 22.0° C. (RT), 90 seconds, PBS
[2] = Aspergillus flavus, 3357, 0.025 h, 57.5° C. mild heat, 90 seconds, PBS
[3] = 57.5° C. mild heat, 90 seconds, PBS

Row | Structure (SMILES) | MFC [1] [µM] | MFC [2] [µM] | also measured
1 | O=Cc1cccc(O)c1O [2,3-Dihydroxybenzaldehyde] | > 700 | > 700 | 
2 | O=C(O)c1ccc(O)cc1O [2,4-Dihydroxybenzoic acid] | > 700 | > 700 | 
3 | COc1ccc(C=O)c(O)c1 [2-Hydroxy-4-methoxybenzaldehyde] | > 700 | > 700 | 
4 | Cc1ccc(C=O)c(O)c1 [2-Hydroxy-4-methylbenzaldehyde] | > 700 | > 700 | 
5 | O=C(O)c1ccc(O)c(O)c1 [3,4-Dihydroxybenzoic acid] | > 700 |  | MFC [3]: >700 µM
6 | O=Cc1ccccc1 [Benzaldehyde] | > 700 |  | MFC [3]: >700 µM
7 | O=C(O)c1ccccc1 [Benzoic acid] | > 700 |  | MFC [3]: >700 µM
8 | CCCCOC(=O)c1cc(O)c(O)c(O)c1 [Butyl gallate] | > 700 | > 700 | 
9 | Cc1ccc(C(C)C)cc1O [Carvacrol] | > 700 |  | MFC [3]: >700 µM
10 | CC[C@H](C)C[C@H](C)CCCCCCCCC(=O)N[C@H]1C[C@@H](O)[C@@H](NCCN)NC(=O)[C@@H]2[C@@H](O)CCN2C(=O)[C@H]([C@H](O)CCN)NC(=O)[C@H]([C@H](O)[C@@H](O)c2ccc(O)cc2)NC(=O)[C@@H]2C[C@@H](O)CN2C(=O)[C@H]([C@@H](C)O)NC1=O [Caspofungin] |  |  | minimum fungicidal concentration (MFC; >99.999% fungal death) (22.0° C. (RT), 90 seconds, PBS): >64 μg/mL; ppm; minimum fungicidal concentration (MFC; >99.999% fungal death) [3]: >64 μg/mL; ppm
11 | O=CC=Cc1ccccc1 [Cinnamaldehyde] | > 700 |  | MFC [3]: >700 µM
12 | O=C(O)C=Cc1ccccc1 [Cinnamic acid] | > 700 | > 700 | 
13 | Cc1cc(C2CC2)nc(Nc2ccccc2)n1 [Cyprodinil] |  |  | minimum fungicidal concentration (MFC; >99.999% fungal death) (22.0° C. (RT), 90 seconds, PBS): >64 μg/mL; ppm; minimum fungicidal concentration (MFC; >99.999% fungal death) [3]: >64 μg/mL; ppm
14 | CCCCCCCCCCOC(=O)c1cc(O)c(O)c(O)c1 [Decyl gallate] | > 700 | 200 | MFC (22.0° C. (RT), 90 seconds, PBS): >700 µM; minimum fungicidal concentration (MFC; >99.999% fungal death) [3]: 200* μM
15 | CCOC(=O)c1cc(O)c(O)c(O)c1 [Ethyl gallate] | > 700 | > 700 | 
16 | N#Cc1c[nH]cc1-c1cccc2c1OC(F)(F)O2 [Fludioxonil] |  |  | minimum fungicidal concentration (MFC; >99.999% fungal death) (22.0° C. (RT), 90 seconds, PBS): >64 μg/mL; ppm; minimum fungicidal concentration (MFC; >99.999% fungal death) [3]: >64 μg/mL; ppm

Row | Structure (SMILES) | MFC [1] [µM] | MFC [2] [µM] | also measured
17 | O=C(O)c1cc(O)c(O)c(O)c1 [Gallate] | > 700 | > 700 | 
18 | COc1ccccc1O [Guaiacol] | > 700 | > 700 | 
19 | OO [Hydrogen peroxide] | > 700 | > 700 | 
20 | CCC(C)n1ncn(-c2ccc(N3CCN(c4ccc(OCC5COC(Cn6cncn6)(c6ccc(Cl)cc6Cl)O5)cc4)CC3)cc2)c1=O (stereo not shown) [Itraconazole] |  |  | minimum fungicidal concentration (MFC; >99.999% fungal death) (22.0° C. (RT), 90 seconds, PBS): 64 μg/mL; ppm; minimum fungicidal concentration (MFC; >99.999% fungal death) [3]: >64 μg/mL; ppm
21 | COC(=O)c1cc(O)c(O)c(O)c1 [Methyl gallate] | > 700 | > 700 | 
22 | CCCCCCCCCOC(=O)c1cc(O)c(O)c(O)c1 [Nonyl gallate] | > 700 | 400 | MFC (22.0° C. (RT), 90 seconds, PBS): >700 µM; minimum fungicidal concentration (MFC; >99.999% fungal death) [3]: 400* μM
23 | CCCOC(=O)c1cc(O)c(O)c(O)c1 [Propyl gallate] | > 700 | > 700 | 
24 | COC(=O)N(OC)c1ccccc1COc1ccn(-c2ccc(Cl)cc2)n1 [Pyraclostrobin] |  |  | minimum fungicidal concentration (MFC; >99.999% fungal death) (22.0° C. (RT), 90 seconds, PBS): >64 μg/mL; ppm; minimum fungicidal concentration (MFC; >99.999% fungal death) [3]: >64 μg/mL; ppm
25 | Cc1cc(C)nc(Nc2ccccc2)n1 [Pyrimethanil] |  |  | minimum fungicidal concentration (MFC; >99.999% fungal death) (22.0° C. (RT), 90 seconds, PBS): >64 μg/mL; ppm; minimum fungicidal concentration (MFC; >99.999% fungal death) [3]: >64 μg/mL; ppm
26 | O=Cc1ccccc1O [Salicylaldehyde] | > 700 |  | MFC [3]: >700 µM
27 | O=C(O)c1ccccc1O [Salicyllic acid] |  |  | MFC (Aspergillus flavus, 3357, 0.025 h): > 700 µM
28 | CCCCCCCCCCCCOS(=O)(=O)[O-].[Na+] [Sodium lauryl sulfate] | > 700 | > 700 | 
29 | Cc1ccc(C(C)C)c(O)c1 [Thymol] | > 700 | > 700 | 
30 | COc1cc(C(=O)O)ccc1O [Vanillic acid] | > 700 | > 700 | 
31 | COc1cc(C=O)ccc1O [Vanillin] | > 700 | > 700 | 
32 | COc1cc(CCC(C)=O)ccc1O [Vanillylacetone] | > 700 | > 700 | 
